From ChEMBL document CHEMBL5344481, “Design, synthesis and biological evaluation of rhein-piperazine-furanone hybrids as potential anticancer agents” (RSC Med Chem, 2024) come the findings set out here.

In general, IC50 refers to the concentration needed to halve the response being measured.

The structures appear in SMILES notation.

One data set has as its system A549. Description: Anticancer activity against human A549 cells incubated for 48 hrs by MTT assay. Type of data set: functional, cell-based. Conditions: A549, 48 h. On the technique in general: Tetrazolium assays rely on reduction of a dye to a coloured formazan, in cell work by metabolically active cells.
A short description of data set [1]: Cytotoxicity against human WI-38 cells incubated for 48 hrs by MTT assay. Type of data set: toxicity, cell-based.
The nature of data set [2]: Selectivity index, ratio of IC50 for human WI-38 cells to IC50 for human A549 cells. Type of data set: toxicity. The note with it: WI-38 cells versus A549 cells, read-out: Ratio IC50.
Data set [3] has as its system NCI-H460. Description: Induction of apoptosis in human NCI-H460 cells assessed as […] cells at 8 uM incubated for 48 hrs by Annexin V-FITC/PI staining based flow cytometry (reference value: 2.17 to 2.38 %). It counts as functional.
For another data set, the system named is Huh-7. Description: Anticancer activity against human Huh-7 cells incubated for 48 hrs by MTT assay. Type of data set: functional, cell-based. The note with it: Huh-7, 48 h.
For data set [4], the system named is NCI-H460. Description: Induction of apoptosis in human NCI-H460 cells assessed as total apoptotic cells at 80 uM incubated for 48 hrs by Annexin V-FITC/PI staining based flow cytometry (reference value: 6.85 %). Type of data set: functional. A general note: Flow cytometry measures light scatter and fluorescence of single cells or particles in a stream.
Data set [5] in a line: Selectivity index, ratio of IC50 for human WI-38 cells to IC50 for human Calu-1 cells. Type of data set: toxicity. Conditions: WI-38 cells versus Calu-1 cells, read-out: Ratio IC50.
Data set [6] deals with NCI-H460. Description: Induction of apoptosis in human NCI-H460 cells assessed as […] cells at 8 uM incubated for 48 hrs by Annexin V-FITC/PI staining based flow cytometry (reference value: 4.31 to 4.76 %). Type of data set: functional.
Data set [7] deals with NCI-H460. Description: Induction of apoptosis in human NCI-H460 cells assessed as […] cells at 0.8 uM incubated for 48 hrs by Annexin V-FITC/PI staining based flow cytometry (reference value: 4.31 to 4.76 %). Type of data set: functional.
For data set [8], the system named is NCI-H460. Description: Induction of apoptosis in human NCI-H460 cells assessed as viable cells at 80 uM incubated for 48 hrs by Annexin V-FITC/PI staining based flow cytometry (reference value: 92.82 to 93.46 %). Conditions: read-out: Activity. It counts as functional.
The test system of data set [9] is NCI-H460. Description: Induction of apoptosis in human NCI-H460 cells assessed as necrotic cells at 0.8 uM incubated for 48 hrs by Annexin V-FITC/PI staining based flow cytometry (reference value: 0.02 to 0.06 %). Type of data set: functional.
The next data set deals with HCT-116. Description: Anticancer activity against human HCT-116 cells incubated for 48 hrs by MTT assay. It counts as functional, cell-based. The note with it: HCT-116, 48 h.
Data set [10] deals with NCI-H460. Description: Induction of apoptosis in human NCI-H460 cells assessed as total apoptotic cells at 8 uM incubated for 48 hrs by Annexin V-FITC/PI staining based flow cytometry (reference value: 6.85 %). Type of data set: functional.
Data set [11] can be described thus: Selectivity index, ratio of IC50 for human MCF-10A cells to IC50 for human SK-BR-3 cells. Type of data set: toxicity. Conditions: MCF-10A cells versus SK-BR-3 cells, read-out: Ratio IC50.
Data set [12] is described as follows: Cytotoxicity against human HEK-293T cells incubated for 48 hrs by MTT assay. Type of data set: toxicity, cell-based.
For data set [13], the system named is NCI-H460. Description: Induction of apoptosis in human NCI-H460 cells assessed as necrotic cells at 8 uM incubated for 48 hrs by Annexin V-FITC/PI staining based flow cytometry (reference value: 0.02 to 0.06 %). Type of data set: functional.
In a further data set the test system is HeLa. Description: Anticancer activity against human HeLa cells incubated for 48 hrs by MTT assay. Type of data set: functional, cell-based.
The subject of a further data set is SK-BR-3. Description: Anticancer activity against human SK-BR-3 cells incubated for 48 hrs by MTT assay. Type of data set: functional, cell-based. Conditions: SK-BR-3, 48 h.
The test system of data set [14] is NCI-H460. Description: Induction of apoptosis in human NCI-H460 cells assessed as […] cells at 80 uM incubated for 48 hrs by Annexin V-FITC/PI staining based flow cytometry (reference value: 2.17 to 2.38 %). Type of data set: functional.
Data set [15] deals with NCI-H460. Description: Induction of apoptosis in human NCI-H460 cells assessed as […] cells at 80 uM incubated for 48 hrs by Annexin V-FITC/PI staining based flow cytometry (reference value: 4.31 to 4.76 %). Type of data set: functional.
A further data set concerns 786-0. Description: Anticancer activity against human 786-0 cells incubated for 48 hrs by MTT assay. Type of data set: functional, cell-based. Conditions: 786-0, 48 h.
For data set [16], the system named is NCI-H460. Description: Induction of apoptosis in human NCI-H460 cells assessed as […] cells at 0.8 uM incubated for 48 hrs by Annexin V-FITC/PI staining based flow cytometry (reference value: 2.17 to 2.38 %). It counts as functional.
Data set [17] can be described thus: Cytotoxicity against human MCF-10A cells incubated for 48 hrs by MTT assay. It counts as toxicity, cell-based.
Data set [18] relates to NCI-H460. Description: Anticancer activity against human NCI-H460 cells incubated for 48 hrs by MTT assay. It counts as functional, cell-based. Conditions: NCI-H460, 48 h.
Data set [19] deals with NCI-H460. Description: Induction of apoptosis in human NCI-H460 cells assessed as viable cells at 0.8 uM incubated for 48 hrs by Annexin V-FITC/PI staining based flow cytometry (reference value: 92.82 to 93.46 %). It counts as functional. Conditions: read-out: Activity.
The subject of data set [20] is NCI-H460. Description: Induction of apoptosis in human NCI-H460 cells assessed as necrotic cells at 80 uM incubated for 48 hrs by Annexin V-FITC/PI staining based flow cytometry (reference value: 0.02 to 0.06 %). Type of data set: functional.
For data set [21], the system named is NCI-H460. Description: Induction of apoptosis in human NCI-H460 cells assessed as viable cells at 8 uM incubated for 48 hrs by Annexin V-FITC/PI staining based flow cytometry (reference value: 92.82 to 93.46 %). It counts as functional. Conditions: read-out: Activity.
Data set [22] in a line: Selectivity index, ratio of IC50 for human WI-38 cells to IC50 for human H460 cells. Type of data set: toxicity. Conditions: WI-38 cells versus H460 cells, read-out: Ratio IC50.
In data set [23] the test system is NCI-H460. Description: Induction of apoptosis in human NCI-H460 cells assessed as total apoptotic cells at 0.8 uM incubated for 48 hrs by Annexin V-FITC/PI staining based flow cytometry (reference value: 6.85 %). It counts as functional.
A further data set concerns Calu-1. Description: Anticancer activity against human Calu-1 cells incubated for 48 hrs by MTT assay. Conditions: Calu-1, 48 h. It counts as functional, cell-based.
A further data set deals with SK-OV-3. Description: Anticancer activity against human SK-OV-3 cells incubated for 48 hrs by MTT assay. Type of data set: functional, cell-based. The note with it: SK-OV-3, 48 h.
Data set [24] can be described thus: Cytotoxicity against human KGN cells incubated for 48 hrs by MTT assay. Type of data set: toxicity, cell-based.
The next data set relates to PC-9. Description: Anticancer activity against human PC-9 cells incubated for 48 hrs by MTT assay. Conditions: PC-9, 48 h. It counts as functional, cell-based.

For the compound `CC(C)[C@@H]1CC[C@@H](C)C[C@H]1O[C@H]1OC(=O)C(Br)=C1N1CCN(C(=O)c2cc(O)c3c(c2)C(=O)c2cccc(O)c2C3=O)CC1`, the IC50 in the data set with A549 came out at 117 µM. The compound further displayed an IC50 at 48 h in data set [1] of 167 µM. The selectivity ratio in [2] was found to be 1.

For `COC1OC(=O)C(Br)=C1N1CCN(C(=O)c2cc(OC(C)=O)c3c(c2)C(=O)c2cccc(OC(C)=O)c2C3=O)CC1` (centres undefined), the IC50 with A549 is 5.49 µM. In [1], this compound came in with an IC50 at 48 h of 39.1 µM. In addition, the selectivity ratio in data set [2] was 7.

Take `COC1OC(=O)C(Cl)=C1N1CCN(C(=O)c2cc(OC(C)=O)c3c(c2)C(=O)c2cccc(OC(C)=O)c2C3=O)CC1` (centres undefined): the Activity with NCI-H460 [3] was determined as 18.88%; in the data set with NCI-H460 [4], 56.57%; with NCI-H460 [6] it was 18.14%; with NCI-H460 [7], 5.09%; with NCI-H460 [9], 0.12%; in the data set on NCI-H460 [10], 37.72%. Besides, the Activity is on record as 0.06% in the data set with NCI-H460 [13]; 29.91% with NCI-H460 [14]; 25.81% in the data set on NCI-H460 [15]; 3.49% in the data set with NCI-H460 [16]; 0.07% in the data set on NCI-H460 [20]; 9.38% with NCI-H460 [23]. Moreover, the IC50 in the data set with Huh-7 was found to be 21 µM; with HCT-116, 13.8 µM; in the data set with HeLa, 30.5 µM; with SK-BR-3, 19.1 µM; in the data set with 786-0, 20.7 µM; in the data set with NCI-H460 [18], 4.35 µM. The IC50 came to 5.74 µM in the data set on A549, 15.4 µM with Calu-1, 60.5 µM in the data set with SK-OV-3 and 5.78 µM with PC-9. Also, the selectivity ratio in [5] came out at 5; in data set [11], 1; in [22], 16; in [2], 12. Moreover, in the data set on NCI-H460 [8], the viability at 80 µM was determined as 42.6%. Besides, the IC50 at 48 h was determined as 9.15 µM in data set [12], 17 µM in [17], 69.3 µM in data set [1] and 76.4 µM in data set [24]. The viability at 0.8 µM in the data set on NCI-H460 [19] came out at 89.5%. The viability at 8 µM with NCI-H460 [21] was found to be 61.1%.

For `CC(=O)Oc1cccc2c1C(=O)c1c(OC(C)=O)cc(C(=O)N3CCN(C4=C(Cl)C(=O)O[C@@H]4O[C@@H]4C[C@H](C)CC[C@H]4C(C)C)CC3)cc1C2=O`, the IC50 with A549 was 115 µM. Moreover, in data set [1], the IC50 at 48 h was 66.3 µM. For the same compound, in data set [2], the selectivity ratio is 1.

For `CC(=O)Oc1cccc2c1C(=O)c1c(OC(C)=O)cc(C(=O)N3CCN(C4=C(Cl)C(=O)OC4O[C@@H]4CC5CCC4(C)C5(C)C)CC3)cc1C2=O` (some centres undefined), in the data set on A549, the IC50 is 69.1 µM. This compound also yielded an IC50 at 48 h in [1] of 34.7 µM. Further, in data set [2], the selectivity ratio is 1.

Take `CC(=O)Oc1cccc2c1C(=O)c1c(OC(C)=O)cc(C(=O)N3CCN(C4=C(Br)C(=O)OC4O[C@@H]4CC5CCC4(C)C5(C)C)CC3)cc1C2=O` (some centres undefined): the IC50 in the data set on A549 came out at 86.7 µM. The IC50 at 48 h in [1] was found to be 43.1 µM. Also, the selectivity ratio in data set [2] came out at 1.

Turning to `CC(=O)Oc1cccc2c1C(=O)c1c(OC(C)=O)cc(C(=O)N3CCN(C4=C(Br)C(=O)O[C@@H]4O[C@@H]4C[C@H](C)CC[C@H]4C(C)C)CC3)cc1C2=O`, in the data set with A549, the IC50 was determined as 46.9 µM. The same compound came in with an IC50 at 48 h in data set [1] of 24.9 µM. In data set [2], the selectivity ratio was 1.

In the data set on A549, `O=C(O)c1cc(O)c2c(c1)C(=O)c1cccc(O)c1C2=O` [RHEIN] came in with an IC50 of 266 µM. Besides, in data set [2], the selectivity ratio is 1.

Compound `CC1(C)C2CCC1(C)[C@H](OC1OC(=O)C(Br)=C1N1CCN(C(=O)c3cc(O)c4c(c3)C(=O)c3cccc(O)c3C4=O)CC1)C2` (some centres undefined) displayed an IC50 in the data set with A549 of 112 µM. Also, the IC50 at 48 h in [1] was determined as 152 µM. Moreover, in [2], the selectivity ratio came out at 1.

In turn, `Nc1ccn([C@@H]2O[C@H](CO)[C@@H](O)[C@@H]2O)c(=O)n1` [CYTARABINE] yielded an IC50 at 48 h in data set [1] of 493 µM. Moreover, the selectivity ratio in data set [2] stood at 2.

Consider `CC1(C)C2CCC1(C)[C@H](OC1OC(=O)C(Cl)=C1N1CCN(C(=O)c3cc(O)c4c(c3)C(=O)c3cccc(O)c3C4=O)CC1)C2` (some centres undefined), for which, in the data set on A549, the IC50 turned out to be 106 µM. In [1], this compound gave an IC50 at 48 h of 173 µM. Further, the selectivity ratio in data set [2] turned out to be 2.

Take `CC(C)[C@@H]1CC[C@@H](C)C[C@H]1O[C@H]1OC(=O)C(Cl)=C1N1CCN(C(=O)c2cc(O)c3c(c2)C(=O)c2cccc(O)c2C3=O)CC1`: it took 46.5 µM to reach half-maximal inhibition in the data set with A549 (IC50). Besides, in data set [1], the midpoint of inhibition, the IC50 at 48 h, lay at 296 µM. Besides, the selectivity ratio in data set [2] is 6.
